# From PubChem BioAssay AID2060893 (Molecular Pharmacology Branch, DTP, NCI, 2025)
# Test system: K86415-001-R-J1-PDC complex spheroids, viability
# Assay: Anticancer human tumor K86415-001-R-J1-PDC patient-derived lung adenocarcinoma cell line growth inhibition [RAS]
# Conditions: for IC50: curve of first compound; for viability, T/C: stronger effect = lower value
# Outline: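 Multi-cell-type spheroids: tumor cells plus HUVEC endothelial cells and mesenchymal stem cells. RAS-pathway inhibitors were combined with targeted agents, each dosed in half-log steps down from clinical Cmax, or from 10 microM when Cmax was unknown.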
# 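Further: spheroids exposed to agents for seven days before readout.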
smiles,measurement,setting,value
C=CC(=O)N1CCN(c2nc(OCC3CCCN3C)nc3c(F)c(-c4nc(N)cc(C)c4C(F)(F)F)c(Cl)cc23)C(C)C1 (centres undefined) + CCn1c(-c2cccnc2C(C)OC)c2c3cc(ccc31)N1CCOC(CC(NC(=O)C(C(C)C)N(C)C(=O)C3(F)CCN(C(=O)C#CC(C)(C)N(C)C)CC3)C(=O)N3CCCC(N3)C(=O)OCC(C)(C)C2)C1,IC50,second compound 0.000949 µM,< 3.16 nM
same,IC50,second compound 0.003 µM,< 3.16 nM
same,IC50,second compound 0.00949 µM,< 3.16 nM
same,IC50,second compound 0.03 µM,< 3.16 nM
same,IC50,second compound 0.0949 µM,< 3.16 nM
same,IC50,second compound 0.3 µM,< 3.16 nM
same,"viability, T/C","second compound 0.000949 µM, first compound 0.00316 µM",13.8%
same,"viability, T/C","second compound 0.000949 µM, first compound 0.01 µM",12.1%
same,"viability, T/C","second compound 0.000949 µM, first compound 0.0316 µM",9.94%
same,"viability, T/C","second compound 0.000949 µM, first compound 0.1 µM",9.02%
same,"viability, T/C","second compound 0.000949 µM, first compound 0.316 µM",11.8%
same,"viability, T/C","second compound 0.000949 µM, first compound 1 µM",9.5%
same,"viability, T/C","second compound 0.003 µM, first compound 0.00316 µM",13.5%
same,"viability, T/C","second compound 0.003 µM, first compound 0.01 µM",12.9%
same,"viability, T/C","second compound 0.003 µM, first compound 0.0316 µM",12.2%
same,"viability, T/C","second compound 0.003 µM, first compound 0.1 µM",11.1%
same,"viability, T/C","second compound 0.003 µM, first compound 0.316 µM",12%
same,"viability, T/C","second compound 0.003 µM, first compound 1 µM",9.09%
same,"viability, T/C","second compound 0.00949 µM, first compound 0.00316 µM",13.7%
same,"viability, T/C","second compound 0.00949 µM, first compound 0.01 µM",10.7%
same,"viability, T/C","second compound 0.00949 µM, first compound 0.0316 µM",14.6%
same,"viability, T/C","second compound 0.00949 µM, first compound 0.1 µM",10.1%
same,"viability, T/C","second compound 0.00949 µM, first compound 0.316 µM",10.7%
same,"viability, T/C","second compound 0.00949 µM, first compound 1 µM",11.4%
same,"viability, T/C","second compound 0.03 µM, first compound 0.00316 µM",13%
same,"viability, T/C","second compound 0.03 µM, first compound 0.01 µM",13.4%
same,"viability, T/C","second compound 0.03 µM, first compound 0.0316 µM",11.1%
same,"viability, T/C","second compound 0.03 µM, first compound 0.1 µM",11.8%
same,"viability, T/C","second compound 0.03 µM, first compound 0.316 µM",11.7%
same,"viability, T/C","second compound 0.03 µM, first compound 1 µM",16.2%
same,"viability, T/C","second compound 0.0949 µM, first compound 0.00316 µM",11%
same,"viability, T/C","second compound 0.0949 µM, first compound 0.01 µM",10.7%
same,"viability, T/C","second compound 0.0949 µM, first compound 0.0316 µM",13.2%
same,"viability, T/C","second compound 0.0949 µM, first compound 0.1 µM",11.2%
same,"viability, T/C","second compound 0.0949 µM, first compound 0.316 µM",12.8%
same,"viability, T/C","second compound 0.0949 µM, first compound 1 µM",15.8%
same,"viability, T/C","second compound 0.3 µM, first compound 0.00316 µM",12%
same,"viability, T/C","second compound 0.3 µM, first compound 0.01 µM",12.6%
same,"viability, T/C","second compound 0.3 µM, first compound 0.0316 µM",14.4%
same,"viability, T/C","second compound 0.3 µM, first compound 0.1 µM",11.2%
same,"viability, T/C","second compound 0.3 µM, first compound 0.316 µM",14%
same,"viability, T/C","second compound 0.3 µM, first compound 1 µM",14.1%
CC(C)n1nc(-c2ccc3oc(N)nc3c2)c2c(N)ncnc21 + C=CC(=O)N1CCN(c2nc(OCC3CCCN3C)nc3c(F)c(-c4nc(N)cc(C)c4C(F)(F)F)c(Cl)cc23)C(C)C1,IC50,second compound 0.00316 µM,< 0.316 nM
same,IC50,second compound 0.01 µM,< 0.316 nM
same,IC50,second compound 0.0316 µM,< 0.316 nM
same,IC50,second compound 0.1 µM,< 0.316 nM
same,IC50,second compound 0.316 µM,< 0.316 nM
same,IC50,second compound 1 µM,< 0.316 nM
same,"viability, T/C","second compound 0.00316 µM, first compound 0.000316 µM",18.4%
same,"viability, T/C","second compound 0.00316 µM, first compound 0.001 µM",17.5%
same,"viability, T/C","second compound 0.00316 µM, first compound 0.00316 µM",16.8%
same,"viability, T/C","second compound 0.00316 µM, first compound 0.01 µM",19.4%
same,"viability, T/C","second compound 0.00316 µM, first compound 0.0316 µM",31.8%
same,"viability, T/C","second compound 0.00316 µM, first compound 0.1 µM",12.5%
same,"viability, T/C","second compound 0.01 µM, first compound 0.000316 µM",11.8%
same,"viability, T/C","second compound 0.01 µM, first compound 0.001 µM",11.1%
same,"viability, T/C","second compound 0.01 µM, first compound 0.00316 µM",11.4%
same,"viability, T/C","second compound 0.01 µM, first compound 0.01 µM",9%
same,"viability, T/C","second compound 0.01 µM, first compound 0.0316 µM",18.9%
same,"viability, T/C","second compound 0.01 µM, first compound 0.1 µM",6%
same,"viability, T/C","second compound 0.0316 µM, first compound 0.000316 µM",10.9%
same,"viability, T/C","second compound 0.0316 µM, first compound 0.001 µM",9.65%
same,"viability, T/C","second compound 0.0316 µM, first compound 0.00316 µM",8.36%
same,"viability, T/C","second compound 0.0316 µM, first compound 0.01 µM",8%
same,"viability, T/C","second compound 0.0316 µM, first compound 0.0316 µM",8.61%
same,"viability, T/C","second compound 0.0316 µM, first compound 0.1 µM",4.33%
same,"viability, T/C","second compound 0.1 µM, first compound 0.000316 µM",10.5%
same,"viability, T/C","second compound 0.1 µM, first compound 0.001 µM",7.96%
same,"viability, T/C","second compound 0.1 µM, first compound 0.00316 µM",7.44%
same,"viability, T/C","second compound 0.1 µM, first compound 0.01 µM",7.78%
same,"viability, T/C","second compound 0.1 µM, first compound 0.0316 µM",5.11%
same,"viability, T/C","second compound 0.1 µM, first compound 0.1 µM",3.67%
same,"viability, T/C","second compound 0.316 µM, first compound 0.000316 µM",10.1%
same,"viability, T/C","second compound 0.316 µM, first compound 0.001 µM",8.76%
same,"viability, T/C","second compound 0.316 µM, first compound 0.00316 µM",9.08%
same,"viability, T/C","second compound 0.316 µM, first compound 0.01 µM",8.68%
same,"viability, T/C","second compound 0.316 µM, first compound 0.0316 µM",6.52%
same,"viability, T/C","second compound 0.316 µM, first compound 0.1 µM",3.86%
same,"viability, T/C","second compound 1 µM, first compound 0.000316 µM",8.74%
same,"viability, T/C","second compound 1 µM, first compound 0.001 µM",8.53%
same,"viability, T/C","second compound 1 µM, first compound 0.00316 µM",8.04%
same,"viability, T/C","second compound 1 µM, first compound 0.01 µM",8.63%
same,"viability, T/C","second compound 1 µM, first compound 0.0316 µM",6.85%
same,"viability, T/C","second compound 1 µM, first compound 0.1 µM",2.72%
